# From a melting point compilation (Tetko et al.; mined from patent text by program, amines drawn as free bases though some values may be those of a salt)
row,Structure (SMILES),melting point
1,CC(=O)Oc1c(Cl)ccc2c(-c3ccccc3)c(Sc3ccccc3)c(Sc3ccccc3)c(-c3ccccc3)c12,138 to 140 °C
2,CCSc1cccc(C)c1S(=O)(=O)NC(C)(C)C,94 °C
3,CCOCc1nc2c(N)nc3cc(Br)ccc3c2n1CC1CCN(S(C)(=O)=O)CC1,233 to 234 °C
4,CCCCOC(=O)[C@H]1CN(c2ccc(C3CCSCC3)c(F)c2)C(=O)O1,98 to 100 °C
5,Cn1cc(Br)cc(Br)c1=O,87 to 88 °C
6,COc1ccc2c(c1OC)CCC(NC(=O)C(F)(F)F)C2=O (stereo not given),166 to 167 °C
7,Cc1nc([C@@H]2C[C@H]2c2ccc3ccccc3n2)cc(-n2nc(C)nc2C)n1 (relative stereo),140 to 141 °C
8,COc1ccc(COCc2nc(C(C)C)c(Sc3cc(Cl)cc(Cl)c3)n2C(C)C)cc1,136 to 137 °C
9,O=C(NC1N=C(c2ccc(F)cc2)c2ccccc2NC1=O)OCc1ccccc1 (stereo not given),> 260 °C
10,Cc1ccc(S(=O)(=O)C(CCCCCc2cccc(C(F)(F)F)c2)C(=O)O)cc1 (stereo not given),62 °C
11,CCC(C(=O)O)c1ccc(C(=O)c2ccc(Cl)cc2)n1C (stereo not given),108 to 112 °C
12,CCCc1cc(O)nc(SCc2ccccc2)n1,122 to 126 °C
13,CCC(CC)N(Cc1ccc(S(C)(=O)=O)cc1)S(=O)(=O)c1ccc(Cl)cc1,166 to 168 °C
14,Cc1sc(Cc2ccccc2)c(-c2ccc(-c3ccc(OC(Cc4ccccc4)C(=O)O)cc3)cc2)c1C (stereo not given),142 to 144 °C
15,CCOC(=O)c1cccc2c(=O)c(C)c(-c3ccc(OC)cc3)oc12,137 to 139 °C
16,O=C(O)Cc1ccn(-c2ccc(F)cc2)c1,100 to 102 °C
17,CC(C)(C)OC(=O)Nc1cccc(C(=O)OCc2ccccc2)c1,151 to 153 °C
18,CN1CCN(C2=C3CSCC34CC(=CC#N)C=CC4=NC=C2)CC1 (stereo not given),90 to 92 °C
19,O=C1C=C(OCc2ccccc2)CN1,147 to 148 °C
20,C[C@H]1C[C@H](C(=O)O)c2cc(Cl)c(Cl)cc2O1 (relative stereo),108 to 110 °C
21,COc1cc(C=CC(=O)Nc2cnc3ccc(C(C)C)cc3c2-c2ccccc2Cl)cc(OC)c1OC(C)=O,138 °C
22,CCCCC1(N(C)C)CCC2(CC1)c1[nH]c3ccccc3c1CCN2C(=O)NCC (stereo not given),182 to 184 °C
23,CN(C)c1onc2c1c(=O)n(C)c(=O)n2C,188 to 190 °C
24,CCCCC12COC(c3ccc(Br)cc3)(OC1)SC2,110 to 112 °C
25,N#Cc1ccc(N)c(F)c1F,108 to 110 °C

row,Structure (SMILES),melting point
1,NC(=O)N1CCN(c2nn(-c3ccccc3F)c3ccccc23)CC1,148 to 150 °C
2,CC(C)C1(C)NC(c2ccccc2C(=O)O)=NC1=O (stereo not given),162 to 163 °C
3,COc1ccc(N2CCN(c3c(C)c(C)c4c(c3C)C(c3cccc(C)c3)C(C)(C)O4)CC2)cc1 (stereo not given),159 to 161 °C
4,CCCCCCCCc1ccc(CCC2(NC(=O)OC(C)(C)C)COC(C)(C)OC2)cc1,120 to 124 °C
5,COCOc1cc(Cl)ccc1-c1cc(-c2cccc([N+](=O)[O-])c2)c(C#N)c(N)n1,196 to 198 °C
6,CCC1(CC)C(=O)NC(C)(C)C(C)(C)N1OC(C)(C)C#N,140 to 145 °C
7,Nc1ccc(Sc2ccnc(N)c2)cc1,141 to 143 °C
8,CC(=O)N(C)c1cccc(C2=CCNc3c(C#N)cnn32)c1,114 to 120 °C
9,CC1=NN(c2ccccc2)C(=O)C1C(=O)Nc1ccc(O)cc1 (stereo not given),135 to 140 °C
10,COc1ccc2occ(CCN3CCN(c4cc(Cl)cc5cccnc45)CC3)c2c1,72 °C
11,Cn1nnnc1NCC(O)COc1cccc(CN2CCCCC2)c1 (stereo not given),156 to 157 °C
12,Cc1cc(Br)cc(-c2ccc3c(c2)C(C)(C)OC(=O)N3)c1,231 to 233 °C
13,CC(=O)Nc1ccc(-c2c(NC(C)=O)n(C)c3ccccc23)cc1,234 to 237 °C
14,Cc1ccc(S(=O)(=O)N2C[C@@H](Cl)C[C@@H]2CCl)cc1,103 to 105 °C
15,O=C(O)c1ccc(C2=NCCS2)nc1,234 to 235 °C
16,NS(=O)(=O)NC(=O)CCCCCC1CCSS1 (stereo not given),130 to 132 °C
17,COc1cccc(Cn2c(=O)c3c(N4CCN(C)CC4)cc(Cl)cc3n(Cc3ccccc3)c2=O)c1,98 to 110 °C
18,O=C(NCC(=O)N1c2ccccc2N(Cc2ccccc2)C(=O)[C@H]2CCC[C@H]21)c1cccs1 (relative stereo),223 °C
19,Cc1ccccc1NNC(=O)c1ccccc1C(F)(F)F,55 to 57 °C
20,COc1ccc2c(n1)C1(CO2)C(=O)N(CC(=O)Nc2ccccc2F)c2ccccc21 (stereo not given),> 170 °C
21,CCCCCCCCCCCCS(=O)CCOc1ccc(CCC(=O)C(F)(F)F)cc1 (stereo not given),98 to 100 °C
22,Cc1c(SCc2ccco2)ccnc1CSc1nc2ccccc2[nH]1,188 to 189 °C
23,CCOC(=O)c1cc2c(Cl)c(F)ccc2[nH]1,180 to 182 °C
24,CN1C(=O)COc2c(C(=O)NC3CN4CCC3CC4)cc(O)cc21 (stereo not given),250 to 251 °C
25,CS(=O)c1c(Br)nn(-c2c(Cl)cc(C(F)(F)F)cc2Cl)c1N (stereo not given),135 to 136 °C

row,Structure (SMILES),melting point
1,CCOC(=O)c1cnc(-c2cc3cccc(N)c3n2COC)s1,188 to 190 °C
2,O=c1nc(-c2cccc(Cl)n2)sc2ccccc12,224 to 225 °C
3,CCOC(=O)c1nc(C)oc1C(=O)Cl,103 to 105 °C
4,O=C(NCc1cccnc1)N(c1ccccc1)c1ccccc1,143 °C
5,CC(=O)N[C@@H](C)c1ccc(C(C)=O)cc1,125 to 128 °C
6,Cc1cc(-n2ccnc2)c2cccc(OCc3c(Cl)ccc(S(=O)(=O)N4C[C@H](O)C[C@H]4C(=O)O)c3Cl)c2n1,140 °C
7,CC(C)(C)C1(C)C(=O)N=C2c3ccccc3C(=O)N21 (stereo not given),136 to 138 °C
8,CON(C)C(=O)CC1CN=C(c2cc3cccc(N(C)S(=O)(=O)c4cccs4)c3[nH]2)S1 (stereo not given),153 to 154 °C
9,Cc1cc(C(N)=O)ccc1NC1CCN(Cc2ccccc2)CC1,156 to 158 °C
10,CC(C)C[C@H](NC(=O)OC(C)(C)C)C(=O)N1CCN(C(c2ccc(F)cc2)c2ccc(F)cc2)CC1,59 to 66 °C
11,COC1C(O)C(CO)OC1n1cnc2c(=O)[nH]c(N)nc21 (stereo not given),236 to 238 °C
12,Cc1nc(Cl)c2c(C)c(C)n(-c3c(C)cc(C)c4nsnc34)c2n1,169 to 171 °C
13,CCCCCCC1C(=O)NC(C(=O)SC2CCCCC2)(C(O)C2C=CCCC2)C1(C)O (stereo not given),85 °C
14,CC1=CC(=O)C(=Cc2ccc(O)cc2O)O1,239 to 242 °C
15,CCOC(=O)c1ccc(N=C(Nc2ccc(C(=O)OCC)cc2)c2ccc([N+](=O)[O-])cc2)cc1,202 to 205 °C
16,O=c1[nH]c(C(F)(F)C(F)(F)F)nc2ncc(Br)cc12,200 to 202 °C
17,CCC1(CCO)C(=O)N2CC=CC(C(=O)OC)N2C1=O (stereo not given),87 to 92 °C
18,O=C(Nc1ccc(F)cc1)c1ccccn1,100 to 103 °C
19,CC12CCC3c4ccc(O)cc4C(O)C(Sc4ccc(O)cc4)C3C1CCC2O (stereo not given),220 to 225 °C
20,CS(=O)(=O)c1ccc(-c2cnn(CC(F)(F)F)c(=O)c2Oc2ccc(F)cc2)cc1,161 to 164 °C
21,CN1CCN(c2ccc(Nc3nccc(-c4c[nH]nc4-c4ccc(Cl)cc4)n3)cc2)CC1,282 to 284 °C
22,CCOC=Nc1[nH]nc(Nc2cccc(OC)c2)c1C#N,181 to 183 °C
23,CC(=O)CC(=O)Nc1ccc(C)cc1C,89 °C
24,CCc1nc(NC(=O)c2cnn3c(C(F)F)cc(-c4ccc(C(F)(F)F)cc4)nc23)sc1S(=O)(=O)N1CCC(O)C1 (racemic),286 °C
25,O=C(NC1Cc2ccc(-c3ccc(F)cc3)cc2C1)c1ccc(F)cc1 (stereo not given),193 °C

row,Structure (SMILES),melting point
1,NC(=NCC(F)(F)F)Nc1ccnc(CSCCNc2nc(N)n[nH]2)n1,199 to 201 °C
2,Cc1ccc(-c2nc(-c3ccc(C)cc3)nc(-c3ccc(C)cc3)n2)cc1,282 to 285 °C
3,O=C(Cn1nnnc1-c1cc2ccccc2o1)OCCO,131 to 135 °C
4,Cc1ccc(S(=O)(=O)OC(C)C(=O)N2CCOCC2)cc1 (stereo not given),75 to 77 °C
5,CCOc1ccc(CN2C(=O)C(C)(c3ccccc3Cl)c3cc(Cl)ccc32)c(OC)c1 (stereo not given),124 °C
6,CN(C)CCCCNC(=O)c1ccccc1-c1nnc(CSCCOc2ccccc2)o1,62 to 65 °C
7,CCOCCN(C(=O)Nc1ccc(C(=O)O)cc1)c1ccc2c(c1)C(C)(C)CCC2(C)C,82 to 85 °C
8,CCCn1cc(C(=O)NCc2ccc(Cl)cc2)c(=O)c2cc(CN(C)C[C@@H](O)c3ccccc3)sc21,45 to 48 °C
9,FC(F)(F)c1cccc(N2CCC(N=Cc3ccc[nH]3)=N2)c1,144 to 145 °C
10,CCOC1(c2ccccc2)c2cc(Cl)ccc2NC(=O)N1c1ccccc1 (stereo not given),209 to 211 °C
11,COc1ccc2c(c1)N=C(NCc1cccnc1)c1ccccc1N2,160 to 161 °C
12,CNc1c(OC)cc(C(O)CS(C)(=O)=O)cc1OC (stereo not given),141 to 142 °C
13,CC(C)Cn1cnc2c(N)nc3cc(CCc4ccccc4)ccc3c21,172 to 173 °C
14,CCOC(=O)C(NC(=O)CO)C(=O)OCC,74 to 74.5 °C
15,Cc1nc2cc3c4c(cccc4c2[nH]1)C(=O)N(O)C3=O,> 330 °C
16,CCOc1ccc(-c2ncc[nH]2)cc1,168 to 169 °C
17,CCN(CC)C(=O)NC1CC2c3cccc4[nH]c(C(C)=O)c(c34)CC2N(C)C1 (stereo not given),114 to 116 °C
18,CN(c1ccc(O)cc1)c1cc2ccc(Cl)cc2c(O)n1,266 °C
19,NC(=O)Cc1ccc(OCC(O)CNCCCn2cnc3ccccc32)cc1 (stereo not given),92 to 96 °C
20,C[C@@H](C(N)=O)c1ccc(NS(=O)(=O)c2ccc(C(F)(F)F)cc2)cc1,178 to 180 °C
21,CC(C)(C)CC(C)(C)c1cc(-n2nc3ccc(-c4ccsc4)cc3n2)c(O)c(C(C)(C)c2ccccc2)c1,147 to 149 °C
22,CNc1ccc(C(C)(C)c2ccc(C(C)(C)c3ccc(NC)cc3)cc2)cc1,115 to 122 °C
23,N#Cc1cc(C(=O)CCl)cs1,94 to 98 °C
24,Nc1cc(N)c(-c2ccc([N+](=O)[O-])cc2-c2cccc(Cl)c2Cl)cn1,237 to 239 °C
25,Fc1ccccc1C1=NCc2cnc(Cl)nc2-c2ccc(Cl)cc21,157 to 160 °C
